Source: patent publication US20250288535A1, “INSTANT NANOPARTICLE COMPOSITION AND PREPARATION METHOD THEREFOR” (CSPC ZHONGQI PHARMACEUTICAL TECHNOLOGY (SHIJIAZHUANG) CO., …, priority 2022, published 2025)

Test: Tissue distribution in JIMT-1 tumor-bearing mice
Assay type: in vivo
Settings: 20 mg/kg tail vein injection
Protocol: 48 human breast cancer JIMT-1 tumor-bearing mice were randomly divided into 2 experimental groups, with a total of 6 mice in each experimental group at each time point. Both of the two preparations were administered to the respective experimental mice at a dose of 20 mg/kg through tail vein injection. Blood samples were collected from each group at 0.25, 1, 3 and 24 hours after administration and the mice were sacrificed immediately. Tumor, heart, liver, spleen, lung, kidney, stomach, small intestine, pancreas and ovary tissues were dissected and subjected to pretreatments such as homogenization, the drug concentration in each tissue sample was determined by protein precipitation-LC/MS/MS method, and the main pharmacokinetic parameters were calculated by using the non-compartmental model of Phoenix WinNonlin 8.0 software (Pharsight, USA).

- tissue with the highest exposure: highest exposure in the liver
Compound: CC(=O)O[C@H]1C(=O)[C@@]2(C)[C@H]([C@H](OC(=O)c3ccccc3)[C@]3(O)C[C@H](OC(=O)[C@H](O)[C@@H](NC(=O)c4ccccc4)c4ccccc4)C(C)=C1C3(C)C)[C@]1(OC(C)=O)CO[C@@H]1C[C@@H]2O [paclitaxel]
